Experimental findings from patent US9802974B2, “Synthesis of diverse glycosylphosphatidylinositol glycans from Toxoplasma gondii and their application as vaccines and diagnostics” (Max-Planck-Gesellschaft zur Förderung der Wissenschaften …, priority 2012, dated 2017) are described below.

In the experiment the test system is serum antibodies raised against the conjugate consisting of compound 3 covalently linked to CRM197. The experiment is described as follows: Carbohydrate microarray analysis of serum from Balb/c mice immunized with the conjugate of compound 3 and CRM197. In kind it is binding. The following applies: pooled serum of Balb/c mice immunized with compound 3-CRM197 conjugate; compounds printed at 1 mM; FIG. 3. As to the method: FIG. 3: left side: Analysis of pooled serum that was obtained 4 weeks after 1st immunization of Balb/c mice with a conjugate consisting of CRM197 covalently linked to compound 3; right side: Printing pattern: all compounds were printed in a 3×3 pattern and in a concentration of 1 mM; left, upper corner: compound 5; left lower corner: compound 3; right, upper corner: compound 4; right lower corner: (α-D-Mannopyranosyl)-(1→2)-(α-D-mannopyranosyl)-(1→2)-(α-D-mannopyranosyl)-(1→6)-(α-D-mannopyranosyl)-(1→4)-(2-amino-2-deoxy-α-D-glucopyranosyl)-(1→6)-1-O-(6-thiohexyl phosphono)-D-myo-inositol (Chem. Eur. J. 2005, 11, 2493).
Three female BALB/c mice were immunized s.c. with 35 μg conjugate, prepared as described in example 11a, in Freund's complete adjuvant. […] After the second immunization, serum was collected and the antibody titer (total IgG) was determined by microarray six weeks after the first immunization.

Entries after “also recorded” stand apart in the source; their conditions may differ.

In the case of “6-O-(aminoethyl phosphono)-α-D-mannopyranosyl-(1→2)-α-D-mannopyranosyl-(1→6)-4-O-(α-D-glucopyranosyl-(1→4)-2-deoxy-2-acetamido-β-D-galactopyranosyl)-α-D-manno-pyranosyl-(1→4)-2-amino-2-deoxy-α-D-glucopyranosyl-(1→6)-1-O-(thiohexyl phosphono)-D-myo-inositol [compound 4]”, the “binding of serum antibodies to the glycan printed on the microarray” value (from here on “binding of serum antibodies”) is given as “not”. Take `CC(=O)NC1C(O)[C@@H](O)C(CO)O[C@H]1O[C@@H]1C(CO[C@H]2OC(CO)[C@@H](O)C(O)C2O[C@H]2OC(COP(=O)(O)OCCN)[C@@H](O)C(O)C2O)O[C@H](O[C@@H]2C(CO)O[C@H](O[C@@H]3C(O)C(O)[C@@H](O)C(O)C3OP(=O)(O)OCCCCCCS)C(N)C2O)C(O)C1O` (stereo partly drawn) [compound 3, 6-O-(aminoethylphosphono)-α-D-mannopyranosyl-(1→2)-α-D-mannopyranosyl-(1→6)-4-O-(2-deoxy-2-acetamido-β-D-galactopyranosyl)-α-D-mannopyranosyl-(1→4)-2-amino-2-deoxy-α-D-glucopyranosyl-(1→6)-1-O-(thiohexylphosphono)-D-myo-inositol]: the “binding of serum antibodies” value is “specifically evoke a binding; also recorded: bound”.

With `CC(=O)NC1C(O)[C@@H](O)C(CO)O[C@H]1O[C@@H]1C(CO[C@H]2OC(CO)[C@@H](O)C(O)C2O[C@H]2OC(COP(=O)(O)OCCN)[C@@H](O)C(O)C2O)O[C@H](O[C@@H]2C(CO)O[C@H](O[C@@H]3C(O)C(O)[C@@H](O)C(O)C3OP(=O)(O)OCCCCCCS)C(N)C2O)C(OP(=O)(O)OCCN)C1O` (stereo partly drawn) [compound 5, 6-O-(aminoethylphosphono)-α-D-mannopyranosyl-(1→2)-α-D-mannopyranosyl-(1→6)-2-O-(aminoethylphosphono)-4-O-(2-deoxy-2-acetamido-β-D-galactopyranosyl)-α-D-mannopyranosyl-(1→4)-2-amino-2-deoxy-α-D-glucopyranosyl-(1→6)-1-O-(thiohexylphosphono)-D-myo-inositol], the “binding of serum antibodies” value is “not and did not show cross reactivity”.

As for `N[C@H]1[C@@H](O[C@@H]2[C@@H](O)[C@H](O)[C@@H](O)[C@@H](O)[C@H]2OP(=O)(O)OCCCCCCS)O[C@H](CO)[C@@H](O[C@H]2O[C@H](CO[C@H]3O[C@H](CO)[C@@H](O)[C@H](O)[C@@H]3O[C@H]3O[C@H](CO)[C@@H](O)[C@H](O)[C@@H]3O[C@H]3O[C@H](CO)[C@@H](O)[C@H](O)[C@@H]3O)[C@@H](O)[C@H](O)[C@@H]2O)[C@@H]1O` [(α-D-Mannopyranosyl)-(1→2)-(α-D-mannopyranosyl)-(1→2)-(α-D-mannopyranosyl)-(1→6)-(α-D-mannopyranosyl)-(1→4)-(2-amino-2-deoxy-α-D-glucopyranosyl)-(1→6)-1-O-(6-thiohexylphosphono)-D-myo-inositol, reference compound], the “binding of serum antibodies” value is listed as “not”.
